Test results from patent EP2818472A1, “Imidazo[4,5-c]pyridine and pyrrolo[3,2-c]pyridine compounds as G-protein-coupled receptor kinase 5 (GRK5) modulators” (Max-Planck-Gesellschaft zur Förderung der Wissenschaften …, priority 2013, dated 2014).

tested on: beta-TC6 cells; test: Insulin HTRF assay (relative activity Ar) in beta-TC6 cells; format: cell-based, mouse; conditions: Mus musculus, Beta-TC6, 4 h, insulin HTRF, supernatant of beta-TC6 cells, incubation with test compound at 37°C for 2, 3, 4h; read-out: Ar (relative activity)
Outline: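 beta-TC6 cells (15k/well, seeded 24 or 48 h) washed, then exposed to compound in induction buffer (0.5% DMSO final) for 2, 3 or 4 h at 37°C.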

SMILES | Emax
CC(=O)Nc1ccc(Nc2nccc3[nH]c(-c4ccsc4)cc23)cc1 [Compound 249, N-[4-[[2-(3-thienyl)-1H-pyrrolo[3,2-c]pyridin-4-yl]amino]phenyl]acetamide] | > 100%
CS(=O)(=O)Nc1cccc(Nc2nccc3[nH]c(-c4ccsc4)cc23)c1 [Compound 265, N-[3-[[2-(3-thienyl)-1H-pyrrolo[3,2-c]pyridin-4-yl]amino]phenyl]methanesulfonamide] | 50 to 100%
CNc1nc2cnc(Nc3ccc(OC)c(OC)c3)cc2n1-c1cccc(C(F)(F)F)c1 [Compound 545, N6-(3,4-dimethoxyphenyl)-N2-methyl-1-[3-(trifluoromethyl)phenyl]imidazo[4,5-c]pyridine-2,6-diamine] | 30 to 50%
COc1ccc(Nc2nccc3[nH]c(-c4ccc(C)cc4)nc23)cc1OC [Compound 378, N-(3,4-dimethoxyphenyl)-2-(p-tolyl)-1H-imidazo[4,5-c]pyridin-4-amine] | 50 to 100%
CN(C)c1ccc(-c2cc3cnc(Nc4cccc(O)c4)cc3n2Cc2ccccc2)cc1 [Compound 60, 3-[[1-benzyl-2-(4-dimethylaminophenyl)pyrrolo[3,2-c]pyridin-6-yl]amino]phenol] | 0 to 30%
COCCNc1nc2cnc(Nc3ccc(C(=O)OC)cc3)cc2n1C [Compound 649, methyl 4-[[2-(2-methoxyethylamino)-1-methyl-imidazo[4,5-c]pyridin-6-yl]amino]benzoate] | 50 to 100%
Cn1c(Nc2ccccc2)nc2cnc(-c3cccc4ccccc34)cc21 [Compound 635, 1-methyl-6-(1-naphthyl)-N-phenyl-imidazo[4,5-c]pyridin-2-amine] | 30 to 50%
COc1ccc(-c2nc3c(Nc4ccc(OC)c(O)c4)nccc3[nH]2)cc1 [Compound 398, 2-methoxy-5-[[2-(4-methoxyphenyl)-1H-imidazo[4,5-c]pyridin-4-yl]amino]phenol] | > 100%
CN1CCN(c2nccc3[nH]c(-c4ccccc4)nc23)CC1 [Compound 334, 4-(4-methylpiperazin-1-yl)-2-phenyl-1H-imidazo[4,5-c]pyridine] | 30 to 50%
Cn1c(NCc2ccccc2F)nc2cnc(-c3cccs3)cc21 [Compound 658, N-[(2-fluorophenyl)methyl]-1-methyl-6-(2-thienyl)imidazo[4,5-c]pyridin-2-amine] | 50 to 100%
CS(=O)(=O)c1ccc(Nc2cc3[nH]c(-c4ccccn4)cc3cn2)cc1 [Compound 72, N-(4-methylsulfonylphenyl)-2-(2-pyridyl)-1H-pyrrolo[3,2-c]pyridin-6-amine] | > 100%
CC(=O)Nc1ccc(Nc2cc3c(cn2)cc(-c2ccc(C(=O)N(C)C)cc2)n3Cc2ccccc2)cc1 [Compound 57, 4-[6-(4-acetamidoanilino)-1-benzyl-pyrrolo[3,2-c]pyridin-2-yl]-N,N-dimethyl-benzamide] | 30 to 50%
COc1ccc(-c2nc3c(N4CCOCC4)nccc3[nH]2)cc1OC [Compound 353, 4-[2-(3,4-dimethoxyphenyl)-1H-imidazo[4,5-c]pyridin-4-yl]morpholine] | 50 to 100%
COCCNC(=O)c1cccc(-c2nc3c(Nc4ccccc4)nccc3[nH]2)c1 [Compound 387, 3-(4-anilino-1H-imidazo[4,5-c]pyridin-2-yl)-N-(2-methoxyethyl)benzamide] | 30 to 50%
CC(C)Oc1ccc(Nc2cc3[nH]c(-c4cncn4C)cc3cn2)cc1 [Compound 109, N-(4-isopropoxyphenyl)-2-(3-methylimidazol-4-yl)-1H-pyrrolo[3,2-c]pyridin-6-amine] | 50 to 100%
COc1ccc(Nc2nccc3[nH]c(-c4cccc(F)c4)nc23)cn1 [Compound 405, 2-(3-fluorophenyl)-N-(6-methoxy-3-pyridyl)-1H-imidazo[4,5-c]pyridin-4-amine] | 30 to 50%
COc1ccccc1-c1cc2c(Nc3ccccn3)nccc2n1C [Compound 304, 2-(2-methoxyphenyl)-1-methyl-N-(2-pyridyl)pyrrolo[3,2-c]pyridin-4-amine] | 30 to 50%
